These results are taken from patent US20160361258A1 (priority 2015, published 2016).

For data set [1] the following is noted: prior art U.S. Pat. No. 5,880,117; humans; cited from earlier work.
A further data set in a line: in vivo. Conditions: delivered sublingually or transmucosally. The procedure:
7-methoxyflavone is an aromatase inhibitor. Aromatase inhibitors work by inhibiting the action of the enzyme aromatase, which converts androgens into estrogens by a process called aromatization. 7-methoxyflavone is a compound having poor bioavailability of about 5% when ingested. According to an embodiment of the present invention, from about 5 mg to 50 mg, and preferably from about 20 mg to 30 mg of 7-methoxyflavone may be included in the formulations and dosage forms of the present invention, when delivered sublingually or transmucosally. […] According to an embodiment, the 7-methoxyflavone may be from a plant extract. 7-methoxyflavone has been found in Meliaceae and Rutaceae plants. According to an embodiment, the 7-methoxyflavone may therefore be from an extract containing at least 90% 7-methoxyflavone, standardized. Preferably, extract contains at least […] 7-methoxyflavone, standardized.
According to an embodiment of the present invention, from about 5 mg to 50 mg, and preferably from about 20 mg to 30 mg of 7,8-benzoflavone may be included in the formulations and dosage forms of the present invention, when delivered sublingually or transmucosally. According to an embodiment, the half-life of 7,8-benzoflavone is about 1-2 h when delivered sublingually or transmucosally.

For data set [2] the following is noted: in vivo; cited from earlier work.

What is called half-life is the time in which the quantity being followed falls by half. Low values mean fast loss, high ones slow loss.

On to `C[C@]12CC[C@H]3[C@@H](CCC4=C[C@@H](O)CC[C@@]43C)[C@@H]1CC[C@@H]2O` [4-androstene-3β, 17β-diol], for which the “time of concentration peak after administration” value in data set [1] was not above 90 min. As to `O=c1cc(-c2ccccc2)oc2c1ccc1ccccc12` [7,8-benzoflavone, 2-phenyl-benzo(h)chromen-4-one], the half-life in “in vivo” was in the range of 1 to 2 h. With `COc1ccc2c(=O)cc(-c3ccccc3)oc2c1` [7-methoxyflavone], in the data set “in vivo”, the half-life is 8 to 12 h. In addition, the bioavailability entry in data set [2] was “about 5%”.
